These are literature values, as cited in patent US20250090693A1, “BIOCOMPATIBLE COMPOSITION FOR LABELING TARGET LESION, AND PREPARATION METHOD THEREFOR” (NATIONAL CANCER CENTER, priority 2022, published 2025).

As to `CC1(C)C(/C=C/C=C/C=C/C=C2\N(CCCCS(=O)(=O)O)c3ccc4ccccc4c3C2(C)C)=[N+](CCCCS(=O)(=O)[O-])c2ccc3ccccc3c21` [indocyanine green (ICG), indocyanine green], the clinical safety result (18 breast cancer patients (T. Kitai, et al., Breast Cancer, 12:211-215, 2005)) is “safely used clinically”. Where the note is “injected into the human body”, the “time after injection until decomposed and disappearing or excreted through urine and feces” value is given as “about an hour”.
